Assay results taken from patent US9523108B2, “Thermostable β-xylosidase” (HONDA MOTOR CO., LTD., priority 2014, dated 2016).

Tests used:
[1] = test system: thermostable β-xylosidase OJ1M-273-1 (GH3 family), SEQ ID NO: 2, from hot spring soil metagenome OJ1, expressed in E. coli, purified; test: Kinetics of PNP substrate hydrolysis by OJ1M-273-1 β-xylosidase; assay type: biochemical; settings: 105° C., pH 5 acetate buffer; for Vmax (maximum initial rate of hydrolysis) / Km: 10 min, enzyme diluted to 0.01 mg/mL, Michaelis-Menten fit; for Km: read-out: Km (Michaelis constant); for Kcat/Km (catalytic efficiency): calculated from fitted Vmax and Km
Experimental: The gene recombinant E. coli homogeneous supernatant was loaded onto an ion exchange column HiTrap Q HP (manufactured by GE Healthcare, Inc.) equilibrated with a 50 mM Tris-HCl buffer (pH 8.0), and a medium-high pressure liquid chromatography system AKTA design (manufactured by GE Healthcare, Inc.) was used to fractionate proteins with a concentration gradient of 0 to 50% in a 50 mM Tris-HCl buffer (pH 8.0) containing 1 M of NaCl. […] The fractions with β-xylosidase activity following the buffer exchange were loaded onto a hydrophobic interaction separation column HiTrap Phenyl HP (manufactured by GE Healthcare, Inc.) equilibrated with the same buffer solution, and the proteins were fractionated with a concentration gradient of 0 to 100% in a 50 mM Tris-HCl buffer (pH 8.0). […] The concentrated sample was loaded onto a gel filtration column Hiload 26/60 superdex 200 pg (manufactured by GE Healthcare, Inc.) equilibrated with a 50 mM Tris-HCl buffer (pH 8.0) containing 150 mM of NaCl, and was fractionated by passing a volume of the same buffer equivalent to 1 to 1.5 times the column volume through the column at a flow rate of 2 to 3 mL/min.
PNPX was used as the substrate for measuring the β-xylosidase activity. A solution prepared by dissolving PNPX (manufactured by Sigma-Aldrich Co. LLC.) in water to obtain a prescribed final concentration was used as the substrate solution. The PNPX substrate solutions used in the experiments described below all used aqueous solutions of PNPX prepared by the above method. In the measurements, a solution prepared by diluting the purified enzyme obtained in section <6> above with a 0.05 M Tris-HCl buffer (pH 8.0) to obtain a concentration of 0.1 to 0.01 mg/mL was used.
The reaction solution was composed of 6 μL of the diluted purified enzyme, 294 μL of purified water, 150 μL of a 200 mM acetate buffer (pH 5), and 150 μL of a 20 mM PNPX aqueous solution.
The reaction was performed at 60° C. to 115° C. for 10 minutes using a ReactiTherm (manufactured by Thermo Fisher Scientific Inc.). A glass vial with a volume of 1.5 mL was used as the reaction vessel, and the inside of the vial was pre-coated with a 1.5% by mass aqueous solution of BSA in order to suppress enzyme protein adsorption. In all measurements, a mixed solution prepared by replacing the gene recombinant E. coli homogenous supernatant or the purified enzyme with a 50 mM Tris-HCl buffer (pH 8.0) and then reacting the solution under the same conditions was used as a control. Further, the mixed solution containing the enzyme (the gene recombinant E. coli homogenous supernatant or the purified enzyme), the purified water and the buffer was held at the reaction temperature for five minutes (pre-incubation), the substrate solution was then added, and the reaction was performed. In each case, following completion of the 10-minute reaction, the reaction was halted by adding a 0.2 M Na2CO3 solution to the reaction solution in a volume equal to that of the mixed solution, and the resulting mixture was then centrifuged for 5 minutes to obtain a supernatant. The amount of p-nitrophenol in the supernatant was determined by measuring the absorbance at 420 nm using a spectrophotometer, calculating the amount of p-nitrophenol in the supernatant using a calibration curve prepared with p-nitrophenol, and then determining the amount of p-nitrophenol produced by the enzymatic hydrolysis on the basis of the difference from the control. The enzymatic activity for producing 1 μmol of p-nitrophenol per minute was defined as 1 U, and the value obtained by dividing this activity by the amount of protein was defined as the specific activity (U/mg). Each measurement was performed for three independent experiments, and a mean value and a standard error were determined.
The maximum initial rate (Vmax) of hydrolysis, the Michaelis constant (Km) and the catalytic efficiency (Kcat/Km) were investigated for PNP substrate hydrolysis by OJ1M-273-1. […]

[2] = test system: thermostable 1-xylosidase having an optimum temperature of 95° C. (Non-Patent Document 7, Shi et al., 2013); settings: PNPX as substrate; cited from earlier work

Compound | Vmax (maximum initial rate of hydrolysis) [1] | Km [1] | Kcat/Km (catalytic efficiency) [1] | catalytic efficiency Kcat/Km [2]
O=[N+]([O-])c1ccc(O[C@@H]2OC[C@H](O)[C@H](O)[C@H]2O)cc1 [PNPAP, p-nitrophenyl-α-L-arabinopyranoside] | 838.5 U/mg | 20.6 mM | 53600 M⁻¹ s⁻¹ | 
O=[N+]([O-])c1ccc(O[C@@H]2OC[C@@H](O)[C@H](O)[C@H]2O)cc1 [PNPX, p-nitrophenyl-β-D-xylopyranoside] | 86.0 U/mg | 0.44 mM | 259800 M⁻¹ s⁻¹ | 1.1734e+06 M⁻¹ s⁻¹
O=[N+]([O-])c1ccc(O[C@@H]2O[C@@H](CO)[C@H](O)[C@H]2O)cc1 [PNPAF, p-nitrophenyl-α-L-arabinofuranoside] | 914.5 U/mg | 13.7 mM | 87700 M⁻¹ s⁻¹ | 
